The results in this text go back to US8263585B2, “Organic compounds” (Novartis AG, priority 2007, dated 2012).

T1 sequence (P48736 38-1102): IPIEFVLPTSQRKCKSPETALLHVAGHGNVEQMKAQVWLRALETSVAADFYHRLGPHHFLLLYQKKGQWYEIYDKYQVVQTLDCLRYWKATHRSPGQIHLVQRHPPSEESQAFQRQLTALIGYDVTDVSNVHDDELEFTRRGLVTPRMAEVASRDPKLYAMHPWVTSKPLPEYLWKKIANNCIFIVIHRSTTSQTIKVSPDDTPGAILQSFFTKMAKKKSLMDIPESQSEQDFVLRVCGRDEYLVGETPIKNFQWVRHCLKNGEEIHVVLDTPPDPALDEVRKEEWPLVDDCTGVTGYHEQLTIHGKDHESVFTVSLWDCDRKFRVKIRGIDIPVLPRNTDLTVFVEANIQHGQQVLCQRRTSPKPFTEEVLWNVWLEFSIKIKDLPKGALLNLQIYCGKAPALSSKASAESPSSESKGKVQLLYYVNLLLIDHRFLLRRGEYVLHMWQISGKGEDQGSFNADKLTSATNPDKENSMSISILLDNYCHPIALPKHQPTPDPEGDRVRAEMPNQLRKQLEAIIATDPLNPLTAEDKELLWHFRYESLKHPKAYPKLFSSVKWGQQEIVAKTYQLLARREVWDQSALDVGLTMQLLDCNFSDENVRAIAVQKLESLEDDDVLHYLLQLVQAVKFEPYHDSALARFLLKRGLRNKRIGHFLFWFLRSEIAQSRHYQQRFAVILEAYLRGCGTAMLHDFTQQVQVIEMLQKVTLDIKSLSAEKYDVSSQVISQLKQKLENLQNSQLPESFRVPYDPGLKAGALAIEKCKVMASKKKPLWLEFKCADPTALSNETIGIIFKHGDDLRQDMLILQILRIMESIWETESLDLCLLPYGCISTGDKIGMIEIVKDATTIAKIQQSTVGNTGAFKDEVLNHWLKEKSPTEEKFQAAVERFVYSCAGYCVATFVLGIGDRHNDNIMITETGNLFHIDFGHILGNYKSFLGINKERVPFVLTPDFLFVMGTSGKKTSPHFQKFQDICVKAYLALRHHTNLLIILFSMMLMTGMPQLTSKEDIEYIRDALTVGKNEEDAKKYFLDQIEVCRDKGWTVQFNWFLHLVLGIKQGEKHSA

The test has as its target T1, human PI 3-Kγ (Homo sapiens, UniProt P48736).
T1 construct: Residues 38-1102 of human PI 3-Kγ are subcloned; made in house; host or cells: Sf9 (Spodoptera frugiperda) insect cells, baculovirus
Briefly: in vitro kinase assay (Scintillation Proximity Assay): transfer of terminal phosphate of ATP to phosphatidylinositol. Format: biochemical. The following applies: recombinant GST-p110γ, 12.5 μM ATP assay mix, 60 minutes room temperature. An excerpt:
Baculovirus expressing different fragments of human PI 3-Kγ fused to glutathione S-transferase (GST) have been previously described by Stoyanova, S., Bulgarelli-Leva, G., Kirsch, C., Hanck, T., Klinger, R., Wetzker, R., Wymann, M. P. (1997) Lipid- and protein kinase activities of G protein-coupled PI 3-kinase g: structure-activity analysis and interactions with wortmannin. Biochem. J., 324:489. Residues 38-1102 of human PI 3-Kγ are subcloned into the BamH1 and EcoR1 sites of the transfer vector pAcG2T (Pharmingen) to create a GST-PI 3-Kγ lacking the first 37 residues of PI 3-Kγ. To express the recombinant protein, Sf9 (Spodoptera frugiperda 9) insect cells are routinely maintained at densities between 3×10^5 and 3×10^6 cells/ml in serum containing TNMFH medium (Sigma). Sf9 cells, at a density of 2×10^6 are infected with human […] baculovirus at a multiplicity of infection (m.o.i.) of 1 for 72 hours. The infected cells are harvested by centrifugation at 1400 g for 4 minutes at 4° C. and the cell pellets are frozen at −80° C. Both Sf9 and Sf21 cells work equally well. Sf9 cells (1×10^9) are resuspended in 100 ml cold (4° C.) lysis buffer (50 mM Tris-HCl pH 7.5, 1% Triton X-100, 150 mM NaCl, 1 mM NaF, 2 mM DTT and protease inhibitors. Cells are incubated on ice for 30 minutes then centrifuged at 15000 g for 20 minutes at 4° C. Purification of the supernatant sample is carried out at 4° C. by affinity chromatography using SEPHAROSE™ agarose gel beads coupled to glutathione (from Amersham Pharmacia Biotech). A cell lysate/GST resin ratio of 50:1 is used. The GST resin is firstly pre-rinsed to remove ethanol preservative and then equilibrated with lysis buffer. Cell lysate (supernatant) is added (usually as 50 ml lysate to 1 ml GST resin in 50 ml tubes) and gently rotated on a mixer at 4° C. for 2-3 hours. The unbound flow through sample is collected by centrifugation at 1000 g for 5 minutes at 4° C. using a DENLEY™ centrifuge. The 1 ml GST resin containing bound material is transferred to a 15 ml FALCON™ centrifuge tube for subsequent washing and elution steps. Firstly a series of 3 cycles of washings (mixing by gentle inversion) is performed with 15 ml ice cold wash Buffer A (50 mM Tris-HCl pH 7.5, 1% Triton X-100, 2 mM DTT) interspersed with centrifugation at 1000 g for 5 minutes at 4° C. A final single wash step is performed with 15 ml ice cold wash Buffer B (50 mM Tris-HCl pH 7.5, 2 mM DTT) and then centrifuged at 1050 g for 5 minutes at 4° C. The washed GST resin is finally eluted with 4 cycles of 1 ml ice cold elution buffer (50 mM Tris-HCl pH 7.5, 10 mM reduced glutathione, 2 mM DTT, 150 mM NaCl, 1 mM NaF, 50% ethylene glycol and protease inhibitors) interspersed with centrifugation at 1000 g for 5 minutes at 4° C. Samples are aliquoted and stored at −20° C.
An in vitro kinase assay was established that measures the transfer of the terminal phosphate of adenosine triphosphate to phosphatidylinositol. The kinase reaction is performed in a white 96 well microtitre plate as a Scintillation Proximity Assay. Each well contains 10 μl test compound in 5% dimethylsulphoxide and 20 μl assay mix (40 mM Tris, 200 mM NaCl, 2 mM ethyleneglycol-aminoethyl-tetraacetic acid (EGTA), 15 μg/ml phosphatidylinositol, 12.5 μM adenosine triphosphate (ATP), 25 mM MgCl2, 0.1 μCi [^33P]ATP). The reaction is started by the addition of 20 μl of enzyme mix (40 mM Tris, 200 mM NaCl, 2 mM EGTA containing recombinant GST-p110γ). […]
A general note: Scintillation proximity formats need no separation of bound from free tracer.
As for `Cc1nc(N)ncc1-c1ccc(Cl)c(S(=O)(=O)Nc2ccccc2)c1` [Example 1-1, 5-(2-Amino-4-methyl-pyrimidin-5-yl)-2-chloro-N-phenyl-benzenesulfonamide], the 50% inhibitory concentration (IC50) worked out at 4 nM.

Take `Cc1nc(N)ncc1-c1ccc(Cl)c(S(=O)(=O)N(C)C)c1` [Example 1-15, 5-(2-Amino-4-methyl-pyrimidin-5-yl)-2-chloro-N2N-dimethyl-benzenesulfonamide]: the IC50 amounted to 239 nM. In the case of `Cc1nc(N)ncc1-c1ccc(Cl)c(S(=O)(=O)N2CC(O)C2)c1` [Example 1-30, 1-[5-(2-Amino-4-methyl-pyrimidin-5-yl)-2-chloro-benzenesulfonyl]-azetidin-3-ol] it was 135 nM. In the case of `Cc1nc(N)ncc1-c1ccc(Cl)c(NS(=O)(=O)c2ccccc2)c1` [Example 1-50, N-[5-(2-Amino-4-methyl-pyrimidin-5-yl)-2-chloro-phenyl]-benzenesulfonamide] it was 50 nM; in that of `Cc1nc(N)ncc1-c1ccnc(C(C)(C)C)n1` [Example 2-1, 2-tert-Butyl-4′-methyl-[4,5′]bipyrimidinyl-2′-ylamine], 223 nM.

Take `Cc1nc(N)ncc1-c1ccc(Cl)c(S(=O)(=O)NC2CC2)c1` [Example 3-1, 5-(2-Amino-4-methyl-pyrimidin-5-yl)-2-chloro-N-cyclopropyl-benzenesulfonamide]: the IC50 was 219 nM. With `Cc1nc(N)ncc1-c1ccc(Cl)c(S(=O)(=O)N[C@H]2CC[C@@H](NC(=O)OC(C)(C)C)CC2)c1` [Example 3-17, cis-{4-[5-(2-Amino-4-methyl-pyrimidin-5-yl)-2-chloro-benzenesulfonylamino]-cyclohexyl}-carbamic acid tert-butyl ester] the figure was 305 nM; with `Cc1nc(N)ncc1-c1ccc(Cl)c(NS(=O)(=O)c2cccc(Cl)c2)c1` [Example 3-35, N-[5-(2-Amino-4-methyl-pyrimidin-5-yl)-2-chloro-phenyl]-3-chloro-benzene sulfonamide], 16 nM; with `Cc1nc(N)ncc1-c1ccc(C(F)(F)F)c(S(=O)(=O)N[C@@H]2CCC[C@@H]2O)c1` [Example 3-53, 5-(2-Amino-4-methyl-pyrimidin-5-yl)-N-((1R,2S)-2-hydroxy-cyclopentyl)-2-trifluoromethyl-benzenesulfonamide], 108 nM.

As a reminder, the IC50 is the concentration that gives 50% inhibition.
